Test results published in patent US11006626B2, “Compounds for protection of cells” (Sulfateq B.V., priority 2012, dated 2021).

Tested on: PRP platelets
Experiment: PRP platelets stored with Sul 136, aggregation after stimulation with ADP
Type: cell-based
Parameters: key to aggregation of the platelets after stimulation with ADP: +means that the cells show aggregation and can thus be activated upon stimulation; −means no aggregation upon stimulation
Experimental: […] • The color and coagulation properties were visually analysed. • The thrombocyte cells that survived were counted and it was evaluated whether the thrombocytes were aggregated. • It was evaluated if the thrombocytes still were able to function after stimulation by the addition of ADP or under influence of collagen in a 96 well plate. • The adhesion was evaluated, meaning the ability of the platelets to bind collagen in a 6 well plate preincubated with collagen. • Via an ELISA assay, it was evaluated whether thromboxane was secreted from the platelets. Thromboxane facilitates aggregation and is produced by activated blood platelets.
(+means that the cells show aggregation and can thus be activated upon stimulation, −means no aggregation upon stimulation)

Cc1c(C)c2c(c(C)c1O)CCC(C)(C(=O)N1CCN(CC(=O)O)CC1)O2 (racemic) [SUL - 136, 2-(4-(6-hydroxy-2,5,7,8-tetramethylchroman-2-carbonyl)piperazin-1-yl)acetic acid]
still showed activity: activity after stimulation with ADP (10 mM)
+: aggregation of the platelets after stimulation with ADP (10 min 0.001 mM, 0 h) | aggregation of the platelets after stimulation with ADP (10 min 0.01 mM, 0 h) | aggregation of the platelets after stimulation with ADP (10 min 0.1 mM, 0 h) | aggregation of the platelets after stimulation with ADP (10 min 1 mM, 0 h) | aggregation of the platelets after stimulation with ADP (10 min 10 mM, 0 h) | aggregation of the platelets after stimulation with ADP (10 min 10 mM, 24 h) | aggregation of the platelets after stimulation with ADP (10 min 10 mM, 48 h) | aggregation of the platelets after stimulation with ADP (10 min 10 mM, 72 h) | aggregation of the platelets after stimulation with ADP (10 min 10 mM, 216 h) | aggregation of the platelets after stimulation with ADP (60 min 0.001 mM, 0 h) | aggregation of the platelets after stimulation with ADP (60 min 0.01 mM, 0 h) | aggregation of the platelets after stimulation with ADP (60 min 0.1 mM, 0 h) | aggregation of the platelets after stimulation with ADP (60 min 1 mM, 0 h) | aggregation of the platelets after stimulation with ADP (60 min 10 mM, 0 h) | aggregation of the platelets after stimulation with ADP (60 min 10 mM, 24 h) | aggregation of the platelets after stimulation with ADP (60 min 10 mM, 48 h) | aggregation of the platelets after stimulation with ADP (60 min 10 mM, 72 h)
−: aggregation of the platelets after stimulation with ADP (10 min 0.001 mM, 24 h) | aggregation of the platelets after stimulation with ADP (10 min 0.001 mM, 48 h) | aggregation of the platelets after stimulation with ADP (10 min 0.001 mM, 72 h) | aggregation of the platelets after stimulation with ADP (10 min 0.001 mM, 216 h) | aggregation of the platelets after stimulation with ADP (10 min 0.01 mM, 24 h) | aggregation of the platelets after stimulation with ADP (10 min 0.01 mM, 48 h) | aggregation of the platelets after stimulation with ADP (10 min 0.01 mM, 72 h) | aggregation of the platelets after stimulation with ADP (10 min 0.01 mM, 216 h) | aggregation of the platelets after stimulation with ADP (10 min 0.1 mM, 24 h) | aggregation of the platelets after stimulation with ADP (10 min 0.1 mM, 48 h) | aggregation of the platelets after stimulation with ADP (10 min 0.1 mM, 72 h) | aggregation of the platelets after stimulation with ADP (10 min 0.1 mM, 216 h) | aggregation of the platelets after stimulation with ADP (10 min 1 mM, 24 h) | aggregation of the platelets after stimulation with ADP (10 min 1 mM, 48 h) | aggregation of the platelets after stimulation with ADP (10 min 1 mM, 72 h) | aggregation of the platelets after stimulation with ADP (10 min 1 mM, 216 h) | aggregation of the platelets after stimulation with ADP (60 min 0.001 mM, 24 h) | aggregation of the platelets after stimulation with ADP (60 min 0.001 mM, 48 h) | aggregation of the platelets after stimulation with ADP (60 min 0.001 mM, 72 h) | aggregation of the platelets after stimulation with ADP (60 min 0.001 mM, 216 h) | aggregation of the platelets after stimulation with ADP (60 min 0.01 mM, 24 h) | aggregation of the platelets after stimulation with ADP (60 min 0.01 mM, 48 h) | aggregation of the platelets after stimulation with ADP (60 min 0.01 mM, 72 h) | aggregation of the platelets after stimulation with ADP (60 min 0.01 mM, 216 h) | aggregation of the platelets after stimulation with ADP (60 min 0.1 mM, 24 h) | aggregation of the platelets after stimulation with ADP (60 min 0.1 mM, 48 h) | aggregation of the platelets after stimulation with ADP (60 min 0.1 mM, 72 h) | aggregation of the platelets after stimulation with ADP (60 min 0.1 mM, 216 h) | aggregation of the platelets after stimulation with ADP (60 min 1 mM, 24 h) | aggregation of the platelets after stimulation with ADP (60 min 1 mM, 48 h) | aggregation of the platelets after stimulation with ADP (60 min 1 mM, 72 h) | aggregation of the platelets after stimulation with ADP (60 min 1 mM, 216 h) | aggregation of the platelets after stimulation with ADP (60 min 10 mM, 216 h)
